In PubChem BioAssay AID206 (DTP/NCI, 2004):
Where “and” joins values, the source holds several entries; their conditions need not be identical. Equal values may be shown once. Inconclusive results are not listed.

Tested on: nude mice, HT29 intrarenal xenograft, tumor weight T/C
Assay: NCI In Vivo Anticancer Drug Screen. Data for tumor model HT29;CX-1 Human Adenocarcinoma (MER+) (intrarenal inoculation) in NU/NU Swiss (nude) mice
Conditions: endpoint: mean tumor weight change, higher = larger tumour
Summary of the method: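 T/C = treated-group value ÷ vehicle-group value, using tumor size or survival.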

[1] = dose: 0.13 mg/kg/injection, schedule: Q01DX010 (sc), vehicle: saline
[2] = dose: 100.0 mg/kg/injection, schedule: Q04DX004 (sc), vehicle: saline with Tween-80
[3] = dose: 300.0 mg/kg/injection, schedule: Q04DX004 (sc), vehicle: Klucel (hydroxypropylcellulose) (HPC)
[4] = dose: 600.0 mg/kg/injection, schedule: Q04DX004 (sc), vehicle: Klucel (hydroxypropylcellulose) (HPC)
[5] = dose: 1200.0 mg/kg/injection, schedule: Q04DX004 (sc), vehicle: Klucel (hydroxypropylcellulose) (HPC)
[6] = dose: 2400.0 mg/kg/injection, schedule: Q04DX004 (sc), vehicle: Klucel (hydroxypropylcellulose) (HPC)
[7] = dose: 150.0 mg/kg/injection, schedule: Q04DX004 (sc), vehicle: saline with Tween-80

## Cc1cc2c(c3oc(C4(C)OC4C4OC4C)cc(=O)c13)C(=O)c1c(O)c(C3CC(C)(N(C)C)C(O)C(C)O3)cc(C3CC(N(C)C)C(O)C(C)O3)c1C2=O (configuration not stated)
[1]
  T/C: 50 % of control

## O=C(O)C1Cc2nc[nH]c2CN1CO (configuration not stated)
[2]
  T/C: 90 % of control
dose: 1600.0 mg/kg/injection, schedule: Q04DX004 (sc), vehicle: saline with Tween-80
  T/C: 108 % of control

## O=C(O)c1cc(Cc2ccc(O)c(C(=O)O)c2)ccc1O (tested in a mixture with another compound)
[3]
  T/C: 62 % of control
[4]
  T/C: 57 % of control
[5]
  T/C: 114 % of control
[6]
  T/C: 104 % of control

## CCCCCCCCCCCCCCCC(=O)Nc1ccn(C2OC(CO)C(O)C2O)c(=O)n1 (configuration not stated)
dose: 56.25 mg/kg/injection, schedule: Q04DX004 (sc), vehicle: water
  T/C: 114 % of control

## C[C@H](CCC[C@H](C)OS(=O)(=O)c1ccccc1)OS(=O)(=O)c1ccccc1
dose: 75.0 mg/kg/injection, schedule: Q04DX004 (sc), vehicle: saline with Tween-80
  T/C: 49 % of control
[7]
  T/C: 35 % of control

## O=C(O)CC(=O)O.[NH-]C1CCCCC1[NH-].[Pt+2] (configuration not stated)
dose: 10.0 mg/kg/injection, schedule: Q01DX010 (sc), vehicle: dextrose
  T/C: 264 % of control
dose: 15.0 mg/kg/injection, schedule: Q01DX010 (sc), vehicle: dextrose
  T/C: 73 % of control
dose: 30.0 mg/kg/injection, schedule: Q01DX010 (sc), vehicle: dextrose
  T/C: 32 % of control and 43 % of control
dose: 40.0 mg/kg/injection, schedule: Q01DX010 (sc), vehicle: dextrose
  T/C: 21 % of control
dose: 60.0 mg/kg/injection, schedule: Q01DX010 (sc), vehicle: dextrose
  T/C: 34 % of control and 44 % of control
dose: 120.0 mg/kg/injection, schedule: Q01DX010 (sc), vehicle: dextrose
  T/C: 51 % of control

## COC1=C(N)C(=O)c2nc(-c3nc(C(=O)O)c(C)c(-c4ccc(OC)c(OC)c4O)c3N)ccc2C1=O
[1]
  T/C: -33 % of control
dose: 0.5 mg/kg/injection, schedule: Q01DX010 (sc), vehicle: saline
  T/C: -10 % of control

## C[n+]1c(/C=N/NC(N)=S)ccc2ccccc21
[7]
  T/C: 75 % of control
dose: 600.0 mg/kg/injection, schedule: Q04DX004 (sc), vehicle: saline with Tween-80
  T/C: 66 % of control
dose: 1200.0 mg/kg/injection, schedule: Q04DX004 (sc), vehicle: saline with Tween-80
  T/C: 72 % of control

## O=C(Nc1ccccc1C(=O)O)c1cc([N+](=O)[O-])cc([N+](=O)[O-])c1
dose: 50.0 mg/kg/injection, schedule: Q04DX004 (sc), vehicle: saline with Tween-80
  T/C: 91 % of control
[2]
  T/C: 120 % of control
dose: 200.0 mg/kg/injection, schedule: Q04DX004 (sc), vehicle: saline with Tween-80
  T/C: 119 % of control

## CCN(Cc1ccc(Cl)c(Cl)c1)c1ccc2nc(N)nc(N)c2c1C
dose: 9.38 mg/kg/injection, schedule: Q04DX004 (sc), vehicle: distilled water + Tween-80
  T/C: 44 % of control
dose: 18.75 mg/kg/injection, schedule: Q04DX004 (sc), vehicle: distilled water + Tween-80
  T/C: 54 % of control
dose: 37.5 mg/kg/injection, schedule: Q04DX004 (sc), vehicle: distilled water + Tween-80
  T/C: 93 % of control
dose: 75.0 mg/kg/injection, schedule: Q04DX004 (sc), vehicle: distilled water + Tween-80
  T/C: 47 % of control

## O=c1ncccn1[C@@H]1O[C@H](CO)[C@H](O)C1O (some centres not stated)
dose: 300.0 mg/kg/injection, schedule: Q04DX004 (sc), vehicle: saline
  T/C: 110 % of control
dose: 600.0 mg/kg/injection, schedule: Q04DX004 (sc), vehicle: saline
  T/C: 87 % of control
dose: 1200.0 mg/kg/injection, schedule: Q04DX004 (sc), vehicle: saline
  T/C: 51 % of control
dose: 2400.0 mg/kg/injection, schedule: Q04DX004 (sc), vehicle: saline
  T/C: 55 % of control

## CC1=C(/C=C/C(C)=C/C=C/C(C)=C/C(=O)O)C(C)(C)CCC1
dose: 12.5 mg/kg/injection, schedule: Q01DX010 (sc), vehicle: saline with Tween-80
  T/C: 153 % of control
dose: 25.0 mg/kg/injection, schedule: Q01DX010 (sc), vehicle: saline with Tween-80
  T/C: 176 % of control
dose: 50.0 mg/kg/injection, schedule: Q01DX010 (sc), vehicle: saline with Tween-80
  T/C: 123 % of control

## O=c1nc(-c2ccco2)sc(=O)[nH]1
[3]
  T/C: 235 % of control
[4]
  T/C: 98 % of control

## O=c1[nH]cnc2[nH]ncc12
dose: 150.0 mg/kg/injection, schedule: Q04DX004 (sc), vehicle: suspension in saline
  T/C: 33 % of control
dose: 300.0 mg/kg/injection, schedule: Q04DX004 (sc), vehicle: suspension in saline
  T/C: 31 % of control
dose: 600.0 mg/kg/injection, schedule: Q04DX004 (sc), vehicle: suspension in saline
  T/C: 21 % of control
dose: 1200.0 mg/kg/injection, schedule: Q04DX004 (sc), vehicle: suspension in saline
  T/C: 31 % of control

## Cc1c2ccncc2c(C)c2c1[nH]c1ccccc12
dose: 12.5 mg/kg/injection, schedule: Q01DX010 (sc), vehicle: saline
  T/C: 70 % of control
dose: 25.0 mg/kg/injection, schedule: Q01DX010 (sc), vehicle: saline
  T/C: 47 % of control

## CCC[CH2][Sn]1([CH2]CCC)[O]C2C(CO)OC(n3ccc(N)nc3=O)C2[O]1 (configuration not stated)
dose: 3.0 mg/kg/injection, schedule: Q04DX004 (sc), vehicle: Klucel (hydroxypropylcellulose) (HPC)
  T/C: 27 % of control
dose: 6.0 mg/kg/injection, schedule: Q04DX004 (sc), vehicle: Klucel (hydroxypropylcellulose) (HPC)
  T/C: 85 % of control
dose: 12.0 mg/kg/injection, schedule: Q04DX004 (sc), vehicle: Klucel (hydroxypropylcellulose) (HPC)
  T/C: 109 % of control
dose: 24.0 mg/kg/injection, schedule: Q04DX004 (sc), vehicle: Klucel (hydroxypropylcellulose) (HPC)
  T/C: 76 % of control

## COc1c(C=O)c2c(c(OC)c1OC)-c1ccc(OC)c(=O)cc1[C@@H](NC(C)=O)CC2
dose: 18.75 mg/kg/injection, schedule: Q04DX004 (sc), vehicle: Klucel (hydroxypropylcellulose) (HPC)
  T/C: 70 % of control
dose: 37.5 mg/kg/injection, schedule: Q04DX004 (sc), vehicle: Klucel (hydroxypropylcellulose) (HPC)
  T/C: 71 % of control

## CC1C=NNC1=O (configuration not stated)
dose: 200.0 mg/kg/injection, schedule: Q01DX010 (sc), vehicle: saline with Tween-80
  T/C: 91 % of control
dose: 400.0 mg/kg/injection, schedule: Q01DX010 (sc), vehicle: saline with Tween-80
  T/C: 64 % of control
dose: 800.0 mg/kg/injection, schedule: Q01DX010 (sc), vehicle: saline with Tween-80
  T/C: 105 % of control

## COc1ccc(Cl)[n+]([O-])n1
dose: 50.0 mg/kg/injection, schedule: Q04DX004 (sc), vehicle: Klucel (hydroxypropylcellulose) (HPC)
  T/C: 64 % of control
dose: 100.0 mg/kg/injection, schedule: Q04DX004 (sc), vehicle: Klucel (hydroxypropylcellulose) (HPC)
  T/C: 66 % of control

## COc1cc([C@@H]2c3cc4c(c(O)c3C[C@H]3COC(=O)[C@@H]32)OCO4)cc(OC)c1O
dose: 1.0 mg/kg/injection, schedule: Q01DX010 (sc), vehicle: saline
  T/C: 92 % of control
dose: 2.0 mg/kg/injection, schedule: Q01DX010 (sc), vehicle: saline
  T/C: 75 % of control
dose: 4.0 mg/kg/injection, schedule: Q01DX010 (sc), vehicle: saline
  T/C: 106 % of control

## C[Si](C)(C)OSc1ccccc1[N+](=O)[O-]
[3]
  T/C: 79 % of control
[4]
  T/C: 61 % of control
[5]
  T/C: 107 % of control
[6]
  T/C: 93 % of control

## Cc1ccc(NCCN(C)C)c2c(=O)c3cc(O)ccc3sc12
dose: 225.0 mg/kg/injection, schedule: Q04DX004 (sc), vehicle: Klucel (hydroxypropylcellulose) (HPC)
  T/C: 81 % of control
dose: 450.0 mg/kg/injection, schedule: Q04DX004 (sc), vehicle: Klucel (hydroxypropylcellulose) (HPC)
  T/C: 64 % of control
dose: 900.0 mg/kg/injection, schedule: Q04DX004 (sc), vehicle: Klucel (hydroxypropylcellulose) (HPC)
  T/C: 99 % of control
dose: 1800.0 mg/kg/injection, schedule: Q04DX004 (sc), vehicle: Klucel (hydroxypropylcellulose) (HPC)
  T/C: 68 % of control

## CC[C@](C)(O)C(=O)O[C@H]1C(=O)O[C@@H]2C[C@H]3C(C)=CC(=O)[C@@H](O)[C@]3(C)[C@H]3[C@@]4(O)OC[C@]32[C@@H]1[C@@H](C)[C@H]4O
dose: 0.25 mg/kg/injection, schedule: Q01DX010 (sc), vehicle: Klucel (hydroxypropylcellulose) (HPC)
  T/C: 55 % of control
dose: 0.5 mg/kg/injection, schedule: Q01DX010 (sc), vehicle: Klucel (hydroxypropylcellulose) (HPC)
  T/C: 80 % of control
dose: 1.0 mg/kg/injection, schedule: Q01DX010 (sc), vehicle: Klucel (hydroxypropylcellulose) (HPC)
  T/C: 61 % of control
dose: 2.0 mg/kg/injection, schedule: Q01DX010 (sc), vehicle: Klucel (hydroxypropylcellulose) (HPC)
  T/C: 73 % of control

## CCN=C=NCCCN(C)C
dose: 25.0 mg/kg/injection, schedule: Q04DX004 (sc), vehicle: saline
  T/C: 90 % of control
dose: 50.0 mg/kg/injection, schedule: Q04DX004 (sc), vehicle: saline
  T/C: 78 % of control
dose: 100.0 mg/kg/injection, schedule: Q04DX004 (sc), vehicle: saline
  T/C: 38 % of control
